Activity calls are given as the source filed them. The rule behind the calls is not given here.
What was measured:
[1] = species: Homo sapiens; test: Selectivity ratio of Ki for human 5HT3A receptor to Ki for human 5HT4c receptor
[2] = target: T1, 5-hydroxytryptamine receptor 4 (Homo sapiens, UniProt Q13639); test: Agonist activity at human recombinant 5HT4c receptor expressed in HEK293 cells at 10-fold physiological level assessed as accumulation of cAMP relative to 5HT; assay type: functional, cell-based
[3] = (§1) Half life in rat liver microsomes
[4] = Permeability across human Caco2 cells; details: Caco-2
[5] = target: T1, 5-hydroxytryptamine receptor 4
[6] = target: T1, 5-hydroxytryptamine receptor 4; test: biochemical
Description: Displacement of [3H]GR113808 from human recombinant 5HT4c receptor expressed in HEK293 cells

[7] = target: hERG (KCNH2) (Homo sapiens, UniProt Q12809); test: Inhibition of human ERG expressed in CHO cells at 3 uM; details: CHO cells expressing human ERG
[8] = target: T2, 5-hydroxytryptamine receptor 7 (Homo sapiens, UniProt P34969); test: Binding affinity to 5HT7 receptor
[9] = target: 5-hydroxytryptamine receptor 4 (Cavia porcellus, UniProt O70528); test: Agonist activity at 5HT4 receptor in guinea pig colonic longitudinal muscle/myenteric plexus assessed as contraction
[10] = tested on: Rattus norvegicus; test: Induction of 5HT4-receptor mediated esophagal relaxation in iv dosed Sprague-Dawley rat; assay type: functional
[11] = tested on: Cavia porcellus; test: Prokinetic activity in guinea pig colon assessed as decrease in carmine red dye transit time at 0.3 mg/kg, sc relative to vehicle-treated control; assay type: functional, organism-based; design: dose 0.3 mg/kg
[12] = tested on: Cavia porcellus; test: Prokinetic activity in sc dosed guinea pig colon assessed as increase in distance traveled by carmine red dye after 60 mins relative to vehicle-treated control; assay type: functional, organism-based
[13] = Elimination half life in healthy human administered QD; assay type: ADME, organism-based; details: in vivo, read-out: beta t1/2 (converted)
[14] = Half life in Sprague-Dawley rat at 5 mg/kg, po; assay type: ADME, organism-based; design: dose 5 mg/kg, route oral; details: in vivo
[15] = target: T3, 5-hydroxytryptamine receptor 1A (Homo sapiens) (UniProt P08908); test: Inhibition of 5HT1A receptor at 10 uM
T3 sequence (whole entry): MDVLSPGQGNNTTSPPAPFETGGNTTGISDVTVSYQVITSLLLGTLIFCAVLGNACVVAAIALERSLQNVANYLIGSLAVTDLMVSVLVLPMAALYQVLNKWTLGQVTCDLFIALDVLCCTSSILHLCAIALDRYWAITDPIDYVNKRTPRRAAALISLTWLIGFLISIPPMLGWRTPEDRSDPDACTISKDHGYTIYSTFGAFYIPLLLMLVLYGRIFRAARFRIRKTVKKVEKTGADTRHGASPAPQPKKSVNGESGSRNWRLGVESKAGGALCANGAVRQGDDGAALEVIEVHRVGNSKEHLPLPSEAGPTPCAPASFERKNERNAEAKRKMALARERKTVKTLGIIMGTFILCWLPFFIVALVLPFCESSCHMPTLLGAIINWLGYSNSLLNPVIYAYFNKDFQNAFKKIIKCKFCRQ

[16] = target: 5-hydroxytryptamine receptor 1B (Homo sapiens) (UniProt P28222); test: Inhibition of 5HT1B receptor at 10 uM
[17] = target: 5-hydroxytryptamine receptor 1D (Homo sapiens) (UniProt P28221); test: Inhibition of 5HT1D receptor at 10 uM
[18] = target: 5-hydroxytryptamine receptor 2A (Homo sapiens) (UniProt P28223); test: Inhibition of 5HT2A receptor at 10 uM
[19] = target: 5-hydroxytryptamine receptor 2B (Homo sapiens) (UniProt P41595); test: Inhibition of 5HT2B receptor at 10 uM
[20] = target: T4, 5-hydroxytryptamine receptor 2C (Homo sapiens) (UniProt P28335); test: Inhibition of 5HT2C receptor at 10 uM
T4 sequence (whole entry): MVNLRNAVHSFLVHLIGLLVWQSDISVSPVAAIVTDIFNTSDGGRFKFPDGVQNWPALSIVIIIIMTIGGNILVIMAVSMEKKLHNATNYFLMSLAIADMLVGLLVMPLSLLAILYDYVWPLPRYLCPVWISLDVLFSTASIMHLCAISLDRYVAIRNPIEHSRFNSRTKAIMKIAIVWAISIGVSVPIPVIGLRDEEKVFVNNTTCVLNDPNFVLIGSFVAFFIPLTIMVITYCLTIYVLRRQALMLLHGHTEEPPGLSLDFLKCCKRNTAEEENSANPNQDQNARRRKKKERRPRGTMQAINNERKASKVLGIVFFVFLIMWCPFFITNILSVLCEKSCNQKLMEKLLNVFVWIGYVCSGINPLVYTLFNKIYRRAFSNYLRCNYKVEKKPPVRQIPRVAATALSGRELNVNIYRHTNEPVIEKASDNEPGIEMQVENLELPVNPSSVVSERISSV

[21] = target: T5, 5-hydroxytryptamine receptor 3A (Homo sapiens) (UniProt P46098); test: Inhibition of 5HT3A receptor at 10 uM
T5 sequence (whole entry): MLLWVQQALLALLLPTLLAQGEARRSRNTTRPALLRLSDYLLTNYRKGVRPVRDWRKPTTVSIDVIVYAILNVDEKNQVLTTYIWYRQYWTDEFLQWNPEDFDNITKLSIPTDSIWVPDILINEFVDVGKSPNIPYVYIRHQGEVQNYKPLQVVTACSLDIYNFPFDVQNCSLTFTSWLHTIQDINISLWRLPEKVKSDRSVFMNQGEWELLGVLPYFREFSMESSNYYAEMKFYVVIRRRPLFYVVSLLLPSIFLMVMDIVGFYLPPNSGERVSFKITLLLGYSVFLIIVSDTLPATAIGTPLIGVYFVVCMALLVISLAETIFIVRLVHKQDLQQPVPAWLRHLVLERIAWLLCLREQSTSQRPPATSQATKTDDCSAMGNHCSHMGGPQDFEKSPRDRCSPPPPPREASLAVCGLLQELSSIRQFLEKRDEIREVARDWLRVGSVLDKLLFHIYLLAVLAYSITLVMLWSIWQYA

[22] = target: 5-hydroxytryptamine receptor 5A (Homo sapiens) (UniProt P47898); test: Inhibition of 5HT5A receptor at 10 uM
[23] = target: 5-hydroxytryptamine receptor 6 (Homo sapiens) (UniProt P50406); test: Inhibition of 5HT6 receptor at 10 uM
[24] = target: T2, 5-hydroxytryptamine receptor 7; test: Inhibition of 5HT7 receptor at 10 uM
[25] = in vivo; details: Sprague-Dawley, rat, po, 5 mg/kg
[26] = in vivo; details: Sprague-Dawley, rat, po, 5 mg/kg; remark: listed apart in the source
[27] = tested on: Liver microsomes; test: as §1; details: microsomes

Sequence of hERG (KCNH2) (Q12809 whole entry): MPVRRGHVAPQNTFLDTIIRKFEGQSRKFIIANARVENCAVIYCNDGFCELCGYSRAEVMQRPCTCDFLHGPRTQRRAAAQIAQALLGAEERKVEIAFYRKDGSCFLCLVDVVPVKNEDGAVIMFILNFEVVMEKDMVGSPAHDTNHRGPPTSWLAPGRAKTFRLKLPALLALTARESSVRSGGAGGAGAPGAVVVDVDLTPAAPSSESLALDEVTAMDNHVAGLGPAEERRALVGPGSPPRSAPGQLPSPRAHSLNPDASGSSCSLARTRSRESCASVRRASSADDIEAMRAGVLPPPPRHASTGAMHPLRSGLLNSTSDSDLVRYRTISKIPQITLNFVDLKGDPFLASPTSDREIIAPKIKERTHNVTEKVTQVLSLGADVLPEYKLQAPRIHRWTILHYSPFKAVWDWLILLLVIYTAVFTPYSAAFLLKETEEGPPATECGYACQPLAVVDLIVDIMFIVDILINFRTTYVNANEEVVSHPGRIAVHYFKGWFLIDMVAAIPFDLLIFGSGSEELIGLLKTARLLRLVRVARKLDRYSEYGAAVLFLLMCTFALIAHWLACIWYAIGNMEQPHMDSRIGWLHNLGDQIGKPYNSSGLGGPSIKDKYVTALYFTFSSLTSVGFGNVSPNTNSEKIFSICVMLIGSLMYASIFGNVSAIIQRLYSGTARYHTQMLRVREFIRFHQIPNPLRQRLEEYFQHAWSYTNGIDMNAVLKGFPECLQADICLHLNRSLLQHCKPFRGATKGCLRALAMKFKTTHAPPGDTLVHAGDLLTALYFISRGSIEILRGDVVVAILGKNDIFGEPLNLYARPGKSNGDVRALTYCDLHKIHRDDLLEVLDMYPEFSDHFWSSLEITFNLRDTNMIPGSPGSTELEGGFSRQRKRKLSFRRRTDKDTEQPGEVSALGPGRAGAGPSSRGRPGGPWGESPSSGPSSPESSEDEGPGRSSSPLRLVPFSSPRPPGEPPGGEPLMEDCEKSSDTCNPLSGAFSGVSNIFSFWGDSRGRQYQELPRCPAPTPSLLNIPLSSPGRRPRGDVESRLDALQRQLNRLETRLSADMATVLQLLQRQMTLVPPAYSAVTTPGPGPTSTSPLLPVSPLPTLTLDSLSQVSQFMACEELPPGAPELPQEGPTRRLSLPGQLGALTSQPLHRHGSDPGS
T1 sequence (Q13639 whole entry): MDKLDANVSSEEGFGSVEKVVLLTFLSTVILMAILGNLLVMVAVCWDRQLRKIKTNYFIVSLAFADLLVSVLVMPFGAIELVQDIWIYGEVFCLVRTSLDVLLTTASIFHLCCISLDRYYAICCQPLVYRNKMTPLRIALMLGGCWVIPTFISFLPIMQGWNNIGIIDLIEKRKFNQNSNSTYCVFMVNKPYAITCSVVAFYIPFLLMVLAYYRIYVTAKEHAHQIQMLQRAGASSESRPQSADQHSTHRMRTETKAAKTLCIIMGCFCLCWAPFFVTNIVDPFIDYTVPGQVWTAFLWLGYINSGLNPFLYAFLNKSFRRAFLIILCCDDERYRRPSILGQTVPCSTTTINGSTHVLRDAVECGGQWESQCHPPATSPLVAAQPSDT
T2 sequence (P34969 whole entry): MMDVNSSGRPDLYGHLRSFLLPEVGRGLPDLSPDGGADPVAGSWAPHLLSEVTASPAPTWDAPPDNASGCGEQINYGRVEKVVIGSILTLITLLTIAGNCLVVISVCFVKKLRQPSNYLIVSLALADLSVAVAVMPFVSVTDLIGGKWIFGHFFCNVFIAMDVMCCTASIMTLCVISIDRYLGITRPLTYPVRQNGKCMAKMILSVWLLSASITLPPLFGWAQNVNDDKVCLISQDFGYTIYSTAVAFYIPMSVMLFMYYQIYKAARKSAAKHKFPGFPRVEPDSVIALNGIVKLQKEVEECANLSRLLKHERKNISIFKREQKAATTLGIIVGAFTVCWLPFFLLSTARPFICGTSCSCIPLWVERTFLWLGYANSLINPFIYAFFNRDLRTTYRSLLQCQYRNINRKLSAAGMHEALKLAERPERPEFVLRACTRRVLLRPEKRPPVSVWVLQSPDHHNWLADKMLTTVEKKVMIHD
Sequence of 5-hydroxytryptamine receptor 2A (Homo sapiens) (P28223 whole entry): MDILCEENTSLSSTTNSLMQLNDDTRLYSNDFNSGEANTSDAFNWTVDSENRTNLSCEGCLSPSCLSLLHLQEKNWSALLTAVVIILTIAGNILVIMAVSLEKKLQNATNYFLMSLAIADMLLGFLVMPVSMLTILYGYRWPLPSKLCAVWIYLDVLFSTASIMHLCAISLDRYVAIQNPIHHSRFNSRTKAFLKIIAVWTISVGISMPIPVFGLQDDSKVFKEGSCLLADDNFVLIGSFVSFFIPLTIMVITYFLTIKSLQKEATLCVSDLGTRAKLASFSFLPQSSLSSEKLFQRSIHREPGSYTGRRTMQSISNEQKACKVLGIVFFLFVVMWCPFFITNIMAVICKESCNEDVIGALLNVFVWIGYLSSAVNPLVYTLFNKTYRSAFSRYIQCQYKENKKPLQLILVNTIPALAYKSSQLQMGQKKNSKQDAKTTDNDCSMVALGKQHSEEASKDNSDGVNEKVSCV
Sequence of 5-hydroxytryptamine receptor 5A (Homo sapiens) (P47898 whole entry): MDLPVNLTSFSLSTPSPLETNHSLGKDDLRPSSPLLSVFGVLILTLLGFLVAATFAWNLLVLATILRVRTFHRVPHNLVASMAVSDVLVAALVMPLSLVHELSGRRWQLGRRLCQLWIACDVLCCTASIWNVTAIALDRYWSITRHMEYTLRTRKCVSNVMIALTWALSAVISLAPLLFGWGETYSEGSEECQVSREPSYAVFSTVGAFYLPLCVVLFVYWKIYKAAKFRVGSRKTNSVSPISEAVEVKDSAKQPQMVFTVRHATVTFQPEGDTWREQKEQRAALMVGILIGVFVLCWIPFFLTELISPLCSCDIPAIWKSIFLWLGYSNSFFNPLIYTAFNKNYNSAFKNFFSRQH
Sequence of 5-hydroxytryptamine receptor 6 (Homo sapiens) (P50406 whole entry): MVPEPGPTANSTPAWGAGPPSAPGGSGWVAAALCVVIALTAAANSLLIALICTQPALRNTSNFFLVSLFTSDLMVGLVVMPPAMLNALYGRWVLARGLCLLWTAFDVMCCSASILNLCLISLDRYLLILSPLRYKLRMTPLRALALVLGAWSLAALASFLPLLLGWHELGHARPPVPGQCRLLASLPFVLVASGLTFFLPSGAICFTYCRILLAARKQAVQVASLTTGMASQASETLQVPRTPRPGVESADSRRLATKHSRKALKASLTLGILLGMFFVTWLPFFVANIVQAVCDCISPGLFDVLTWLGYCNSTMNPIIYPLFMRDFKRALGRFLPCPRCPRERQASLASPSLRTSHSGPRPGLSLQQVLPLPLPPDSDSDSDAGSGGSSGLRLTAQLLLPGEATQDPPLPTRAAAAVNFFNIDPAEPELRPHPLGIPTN
Sequence of 5-hydroxytryptamine receptor 4 (Cavia porcellus, UniProt O70528) (O70528 whole entry): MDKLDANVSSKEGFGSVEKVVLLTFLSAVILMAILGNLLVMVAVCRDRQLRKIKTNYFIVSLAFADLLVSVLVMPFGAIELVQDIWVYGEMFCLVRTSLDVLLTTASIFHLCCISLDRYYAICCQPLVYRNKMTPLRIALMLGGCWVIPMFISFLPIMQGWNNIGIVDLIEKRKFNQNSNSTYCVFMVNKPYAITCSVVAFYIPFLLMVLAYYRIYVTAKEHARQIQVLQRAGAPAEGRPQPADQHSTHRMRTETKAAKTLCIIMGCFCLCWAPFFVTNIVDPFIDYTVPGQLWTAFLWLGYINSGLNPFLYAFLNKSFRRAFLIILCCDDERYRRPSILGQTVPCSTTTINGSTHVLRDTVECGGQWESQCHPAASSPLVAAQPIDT
Sequence of 5-hydroxytryptamine receptor 1D (Homo sapiens) (P28221 whole entry): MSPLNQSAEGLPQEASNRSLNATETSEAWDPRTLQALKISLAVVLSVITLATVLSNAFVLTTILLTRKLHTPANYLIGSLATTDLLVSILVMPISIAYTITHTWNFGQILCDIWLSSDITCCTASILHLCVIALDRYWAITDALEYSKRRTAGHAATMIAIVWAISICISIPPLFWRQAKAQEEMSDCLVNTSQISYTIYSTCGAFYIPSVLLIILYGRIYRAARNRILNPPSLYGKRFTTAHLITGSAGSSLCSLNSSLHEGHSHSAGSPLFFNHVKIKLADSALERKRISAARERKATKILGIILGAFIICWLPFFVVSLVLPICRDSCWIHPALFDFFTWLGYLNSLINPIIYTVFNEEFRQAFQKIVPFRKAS
Sequence of 5-hydroxytryptamine receptor 1B (Homo sapiens) (P28222 whole entry): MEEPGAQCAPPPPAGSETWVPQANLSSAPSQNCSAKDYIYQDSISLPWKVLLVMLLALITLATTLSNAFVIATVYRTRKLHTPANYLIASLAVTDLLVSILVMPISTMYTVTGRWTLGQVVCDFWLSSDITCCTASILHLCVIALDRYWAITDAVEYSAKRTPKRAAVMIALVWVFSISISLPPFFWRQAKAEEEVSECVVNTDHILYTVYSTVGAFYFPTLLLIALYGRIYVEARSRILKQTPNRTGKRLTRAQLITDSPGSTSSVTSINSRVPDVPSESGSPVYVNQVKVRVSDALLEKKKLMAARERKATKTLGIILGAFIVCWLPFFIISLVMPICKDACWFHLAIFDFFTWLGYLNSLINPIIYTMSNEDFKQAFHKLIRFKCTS
Sequence of 5-hydroxytryptamine receptor 2B (Homo sapiens) (P41595 whole entry): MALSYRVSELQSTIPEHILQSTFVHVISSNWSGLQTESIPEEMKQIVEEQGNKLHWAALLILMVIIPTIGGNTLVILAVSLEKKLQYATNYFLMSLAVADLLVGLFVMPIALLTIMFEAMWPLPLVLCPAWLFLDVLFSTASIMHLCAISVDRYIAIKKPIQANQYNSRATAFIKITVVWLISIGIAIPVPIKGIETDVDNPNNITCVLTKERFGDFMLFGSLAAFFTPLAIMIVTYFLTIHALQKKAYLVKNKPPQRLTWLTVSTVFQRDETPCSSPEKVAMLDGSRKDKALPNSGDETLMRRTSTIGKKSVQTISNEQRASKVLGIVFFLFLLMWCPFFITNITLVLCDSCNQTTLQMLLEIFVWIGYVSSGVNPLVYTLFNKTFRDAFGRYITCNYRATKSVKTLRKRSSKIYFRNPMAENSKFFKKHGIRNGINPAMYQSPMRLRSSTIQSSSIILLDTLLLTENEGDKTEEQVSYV

SMILES	Ratio Ki [1]	Intrinsic activity [2]	Papp [4] [×10⁻⁶ cm/s]	EC50 [5] [nM]	Ki [6] [nM]	half-life ([3]; liver microsomes) [min]	also measured
CC(C)n1c(=O)c(C(=O)N[C@H]2C[C@H]3CC[C@@H](C2)N3CC(O)CN(C)C(N)=O)cc2ccccc21 (mixture of isomers)	1800	95%	1	20	50.1		half-life ([3]; microsomes): > 90 min
COC(=O)N(C)CC(O)CN1[C@@H]2CC[C@H]1C[C@@H](NC(=O)c1cc3ccccc3n(C(C)C)c1=O)C2 (mixture of isomers)	710	84%	35	10	39.8	> 90	inhibition at 3 µM [7]: 40%
CC(C)n1c(=O)c(C(=O)N[C@H]2C[C@H]3CC[C@@H](C2)N3C[C@@H](O)CN(C)S(C)(=O)=O)cc2ccccc21		95%				> 90	Ki [8]: < 100 nM; EC50 [9]: 12.6 nM; Activity [10]: Dose-dependent effect; ED50 [10]: 0.025 mg/kg; Activity [11]: Active; Activity [12]: Active; half-life [13]: 720 min; half-life [14]: 114 min; inhibition [15]: < 50%; inhibition [16]: < 50%; inhibition [17]: < 50%; inhibition [18]: < 50%; inhibition [19]: < 50%; inhibition [20]: < 50%; inhibition [21]: < 50%; inhibition [22]: < 50%; inhibition [23]: < 50%; inhibition [24]: < 50%; Cmax [25]: 160 ng/mL; AUC(0-t) [26]: 460 ng·h/mL
CC(C)n1c(=O)c(C(=O)N[C@H]2C[C@H]3CC[C@@H](C2)N3CC(O)CNS(C)(=O)=O)cc2ccccc21 (mixture of isomers)	1200	107%		7.94	20		inhibition at 3 µM [7]: 10%
CNC(=O)NCC(O)CN1[C@@H]2CC[C@H]1C[C@@H](NC(=O)c1cc3ccccc3n(C(C)C)c1=O)C2 (mixture of isomers)	2400	82%		12.6	25.1	> 90	
CC(C)n1c(=O)c(C(=O)N[C@H]2C[C@H]3CC[C@@H](C2)N3CC(O)CN(C)C(=O)N(C)C)cc2ccccc21 (mixture of isomers)	260	87%	33	20	50.1	> 90	inhibition at 3 µM [7]: 64%
CC(C)n1c(=O)c(C(=O)N[C@H]2C[C@H]3CC[C@@H](C2)N3CC(O)CNC(=O)N(C)C)cc2ccccc21 (mixture of isomers)	860		3		100	> 90	
CC(=O)N1CCN(CCN2[C@@H]3CC[C@H]2C[C@@H](NC(=O)c2nn(C(C)C)c4ccccc24)C3)CC1	980					> 90	
COC(=O)NCC(O)CN1[C@@H]2CC[C@H]1C[C@@H](NC(=O)c1cc3ccccc3n(C(C)C)c1=O)C2 (mixture of isomers)	1600		35		50.1		inhibition at 3 µM [7]: 74%; half-life ([3]; microsomes): > 90 min
CC(C)n1c(=O)c(C(=O)N[C@H]2C[C@H]3CC[C@@H](C2)N3C[C@H](O)CN(C)S(C)(=O)=O)cc2ccccc21		97%				> 90	
CC(=O)NCC(O)CN1[C@@H]2CC[C@H]1C[C@@H](NC(=O)c1cc3ccccc3n(C(C)C)c1=O)C2 (mixture of isomers)	2200	96%	6	6.31	31.6	> 90	
CC(C)n1c(=O)c(C(=O)N[C@H]2C[C@H]3CC[C@@H](C2)N3C[C@@H](O)CN2CCN(S(C)(=O)=O)CC2)cc2ccccc21	7400	114%					half-life ([3]; microsomes): > 90 min
CC(=O)N(C)CC(O)CN1[C@@H]2CC[C@H]1C[C@@H](NC(=O)c1cc3ccccc3n(C(C)C)c1=O)C2 (mixture of isomers)	1500	95%	16	12.6	39.8	> 90	inhibition at 3 µM [7]: 11%
CC(C)n1c(=O)c(C(=O)N[C@H]2C[C@H]3CC[C@@H](C2)N3CC(O)CNC(N)=O)cc2ccccc21 (mixture of isomers)	3300	82%		5.01	15.8	> 90	
CNC(=O)N(C)CC(O)CN1[C@@H]2CC[C@H]1C[C@@H](NC(=O)c1cc3ccccc3n(C(C)C)c1=O)C2 (mixture of isomers)	870	95%		31.6	100		
COc1cc(N)c(Cl)cc1C(=O)N[C@H]1CCN(CCCOc2ccc(F)cc2)C[C@H]1OC (relative stereo) [REL-CISAPRIDE]		71					t1/2 [27]: 47 min
CCCCCNC(=N)N/N=C/c1c[nH]c2ccc(OC)cc12 [TEGASEROD]	580	92%		2.51		> 90	ED50 [10]: 0.011 mg/kg
CC(C)n1c(=O)c(C(=O)N[C@H]2C[C@H]3CC[C@@H](C2)N3CC(O)CN(C)S(C)(=O)=O)cc2ccccc21 (mixture of isomers)		96%				> 90	

Reference: ChEMBL document CHEMBL2086223 (Bioorg Med Chem Lett, 2012)
